Earlier results, collected in publication PMC10340494, “Sweeteners’ Influence on In Vitro α-Glucosidase Inhibitory Activity, Cytotoxicity, Stability and In Vivo Bioavailability of the Anthocyanins from Lingonberry Jams” (Foods, 2023).

What was measured:
[1] = system: maltase; parameters: method as in PMID 18615280
[2] = system: sucrase; parameters: method as in PMID 18615280

Inhibition of maltase [1]: 35%
Inhibition of sucrase [2]: 64%
Structure (SMILES): OC[C@H]1O[C@@H](Oc2cc3c(O)cc(O)cc3[o+]c2-c2ccc(O)c(O)c2)[C@H](O)[C@@H](O)[C@H]1O [cyanidin-3-galactoside]
